Patent US20230256007A1 (priority 2022, published 2023)

Columns and labels:
[1] = tested on: patient with sequelae of influenza virus type A infection; conditions: Case 3
[2] = tested on: patient with sequelae of infection with the delta variant of coronavirus; conditions: Case 1
Source text: Although the patient was cured after home care, their activity level was lower than that of a healthy person. Fatigue, pain, and decrease in thinking power progressed extremely, and the level of daily life decreased below the level of a healthy person, so they underwent a medical examination at the hospital. The diagnosis based on the physician’s diagnostic criteria was as follows. • (i) Fatigue - persistent, fatigue so pronounced that the activity level is severely impaired: severity 3 (severe) • (ii) Feeling of fatigue after exertion - loss of physical and mental endurance, fatigue aggravated by physical exertion: severity 3 (severe) • (iii) Long recovery time from exertion - it takes 24 hours or more to recover to pre-exertion activity level: severity 2 (moderate) • (iv) Pain - muscle pain, joint pain, headache: severity 2 (moderate) • (v) Sleeping disorder - nonrestorative sleep, insomnia, hypersomnia: severity 2 (moderate) • (vi) Confusion and loss of concentration: severity 2 (moderate) • (vii) Memory impairment - short-term memory is impaired: severity 1 (mild) • (viii) Shortness of breath associated with exertion: severity 2 (moderate) • (ix) Gastrointestinal disorder - diarrhea, irritable bowel syndrome: severity 1 (mild) • (x) Repeated sore throat: severity 1 (mild) • (xi) Dizziness when standing up or fragility: severity 1 (mild) • (xii) Heat/cold intolerance: severity 1 (mild) • (xiii) Body temperature changes, irregular body temperature, cold hands and feet: severity 1 (mild)

[3] = around 3 weeks after inhalation
[4] = after 4 weeks of inhalation, before inhalation severity 2: moderate

## [HH] [hydrogen gas, hydrogen]
[1]; after 8 weeks
  Number of days without naps: increased
[1]; after 8 weeks, although there was malaise
  Amount of time for physical activity: increased
[1]; [3]
  Bowel movements and decreased motivation: improvement
  Nap time: decreased
[1]; around 3 weeks after inhalation, about 4% to 5% hydrogen, 5 hours per day
  General feeling: felt a little lighter
[2]
  Effect on chronic fatigue, pain, and brain fog (summary): clearly effective
[2]; after 2 weeks of inhalation
  Feeling on inhalation (sympathetic nerves high before inhalation): felt relaxed and drowsy
  Foggy head / brain fog: their head appeared clear and refreshed
  Frequency of headache and generalized pain: seemed to decrease
  Number of doses of analgesics: decreased
[2]; after 4 weeks of inhalation
  Bedridden chronic severe fatigue (patient's impression): significantly alleviated
  Cognitive ability (patient's impression): regained some of their writing and summarizing skills
  Foggy feeling in the brain (patient's impression): alleviated
  Number of doses of analgesics relative to that before hydrogen inhalation: ¼
  Other symptoms (not significantly recovered): did not worsen
  Sleeping disorder: same strong symptoms as before
[2]; [4]
  Long recovery time from exertion: severity after inhalation (physician's diagnosis): severity 1: mild
  Loss of concentration: severity after inhalation (physician's diagnosis): severity 1: mild
  Pain, headache: severity after inhalation (physician's diagnosis): severity 1: mild
  Repeated sore throat: severity after inhalation (physician's diagnosis): severity 1: mild
[2]; after 4 weeks of inhalation, before inhalation severity 3: severe
  Fatigue - persistent, activity level severely impaired: severity after inhalation (physician's diagnosis): severity 1: mild, or severity 2: moderate
[2]; after 4 weeks of inhalation, still falls asleep 2 or 3 days a week
  Days on which they feel better like a healthy person: more than half the days of the week
[2]; inhalation for about 90 minutes every day
  Pain due to training, the next day: almost eliminated the pain the next day
[2]; inhaling hydrogen for about 90 minutes
  Falling asleep 1 to 2 hours after exertion (sudden intense fatigue): can avoid falling asleep
[2]; since the start of inhalation, once or twice a week before
  Frequency of headache (patient's impression): decreased significantly, and headache has almost disappeared
[2]; two weeks after starting inhalation
  Muscle pain and joint pain after training: began to be greatly alleviated
